Assay results reported in PMC7407272, “Induction of Lysosome Membrane Permeabilization as a Therapeutic Strategy to Target Pancreatic Cancer Stem Cells” (Cancers, 2020).

Experiments:
Assay in all cases: KINOMEscan
Assay type in all cases: binding
Settings in all cases: read-out: % Ctrl
FGFR4 = target: T1, FGFR4 (Homo sapiens, UniProt P22455)
T1 construct: purchased DiscoveRx KINOMEscan

ABL1(H396P)-nonP = target: T2, ABL1(H396P)-nonP (Homo sapiens, UniProt P00519, H396P)
T2 construct: purchased DiscoveRx KINOMEscan

ABL1(Q252H)-P = target: T3, ABL1(Q252H)-P (Homo sapiens, UniProt P00519, Q252H)
T3 construct: purchased DiscoveRx KINOMEscan

ABL2 = target: T4, ABL2 (Homo sapiens, UniProt P42684)
T4 construct: purchased DiscoveRx KINOMEscan

GRK4 = target: T5, GRK4 (Homo sapiens, UniProt P32298)
T5 construct: purchased DiscoveRx KINOMEscan

PKMYT1 = target: T6, PKMYT1 (Homo sapiens, UniProt Q99640)
T6 construct: purchased DiscoveRx KINOMEscan

IRAK1 = target: T7, IRAK1 (Homo sapiens, UniProt P51617)
T7 construct: purchased DiscoveRx KINOMEscan

JNK2 = target: T8, JNK2 (Homo sapiens, UniProt P45984)
T8 construct: purchased DiscoveRx KINOMEscan

CAMK4 = target: T9, CAMK4 (Homo sapiens, UniProt Q16566)
T9 construct: purchased DiscoveRx KINOMEscan

KIT(V559D,V654A) = target: T10, KIT(V559D,V654A) (Homo sapiens, UniProt P10721, V559D/V654A)
T10 construct: purchased DiscoveRx KINOMEscan

RIOK3 = target: T11, RIOK3 (Homo sapiens, UniProt O14730)
T11 construct: purchased DiscoveRx KINOMEscan

CDK8 = target: T12, CDK8 (Homo sapiens, UniProt P49336)
T12 construct: purchased DiscoveRx KINOMEscan

CDKL1 = target: T13, CDKL1 (Homo sapiens, UniProt Q00532)
T13 construct: purchased DiscoveRx KINOMEscan

MAK = target: T14, MAK (Homo sapiens, UniProt P20794)
T14 construct: purchased DiscoveRx KINOMEscan

RSK1(KD2-C-t.) = target: T15, RSK1(KD2-C-t.) (Homo sapiens, UniProt Q15418)
T15 construct: RSK1(KD2-C-t.); purchased DiscoveRx KINOMEscan

MAP3K3 = target: T16, MAP3K3 (Homo sapiens, UniProt Q99759)
T16 construct: purchased DiscoveRx KINOMEscan

MAP4K2 = target: T17, MAP4K2 (Homo sapiens, UniProt Q12851)
T17 construct: purchased DiscoveRx KINOMEscan
T17 sequence (Q12851 whole entry): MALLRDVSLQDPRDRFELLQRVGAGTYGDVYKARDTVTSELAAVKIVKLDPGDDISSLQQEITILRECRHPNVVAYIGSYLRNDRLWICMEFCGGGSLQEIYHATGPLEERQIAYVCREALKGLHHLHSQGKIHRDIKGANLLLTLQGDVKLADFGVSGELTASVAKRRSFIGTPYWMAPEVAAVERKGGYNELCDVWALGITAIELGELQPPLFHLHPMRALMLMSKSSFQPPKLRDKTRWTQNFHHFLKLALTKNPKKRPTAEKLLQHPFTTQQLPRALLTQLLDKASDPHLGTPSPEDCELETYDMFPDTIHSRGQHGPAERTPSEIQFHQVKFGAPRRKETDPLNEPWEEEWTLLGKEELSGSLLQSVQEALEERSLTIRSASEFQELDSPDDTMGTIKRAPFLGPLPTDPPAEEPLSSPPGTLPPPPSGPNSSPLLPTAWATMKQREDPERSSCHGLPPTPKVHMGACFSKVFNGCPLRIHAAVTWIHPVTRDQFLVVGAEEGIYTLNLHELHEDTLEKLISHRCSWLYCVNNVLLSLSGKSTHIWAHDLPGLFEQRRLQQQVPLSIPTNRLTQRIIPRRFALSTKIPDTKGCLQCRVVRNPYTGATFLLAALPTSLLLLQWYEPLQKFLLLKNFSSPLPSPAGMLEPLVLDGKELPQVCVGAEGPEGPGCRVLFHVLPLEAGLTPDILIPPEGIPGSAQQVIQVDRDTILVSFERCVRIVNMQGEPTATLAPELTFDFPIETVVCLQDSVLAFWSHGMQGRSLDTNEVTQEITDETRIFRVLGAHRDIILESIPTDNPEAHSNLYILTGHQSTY

CSF1R = target: T18, CSF1R (Homo sapiens, UniProt P07333)
T18 construct: purchased DiscoveRx KINOMEscan

SGK3 = target: T19, SGK3 (Homo sapiens, UniProt Q96BR1)
T19 construct: purchased DiscoveRx KINOMEscan

MARK4 = target: T20, MARK4 (Homo sapiens, UniProt Q96L34)
T20 construct: purchased DiscoveRx KINOMEscan
T20 sequence (Q96L34 whole entry): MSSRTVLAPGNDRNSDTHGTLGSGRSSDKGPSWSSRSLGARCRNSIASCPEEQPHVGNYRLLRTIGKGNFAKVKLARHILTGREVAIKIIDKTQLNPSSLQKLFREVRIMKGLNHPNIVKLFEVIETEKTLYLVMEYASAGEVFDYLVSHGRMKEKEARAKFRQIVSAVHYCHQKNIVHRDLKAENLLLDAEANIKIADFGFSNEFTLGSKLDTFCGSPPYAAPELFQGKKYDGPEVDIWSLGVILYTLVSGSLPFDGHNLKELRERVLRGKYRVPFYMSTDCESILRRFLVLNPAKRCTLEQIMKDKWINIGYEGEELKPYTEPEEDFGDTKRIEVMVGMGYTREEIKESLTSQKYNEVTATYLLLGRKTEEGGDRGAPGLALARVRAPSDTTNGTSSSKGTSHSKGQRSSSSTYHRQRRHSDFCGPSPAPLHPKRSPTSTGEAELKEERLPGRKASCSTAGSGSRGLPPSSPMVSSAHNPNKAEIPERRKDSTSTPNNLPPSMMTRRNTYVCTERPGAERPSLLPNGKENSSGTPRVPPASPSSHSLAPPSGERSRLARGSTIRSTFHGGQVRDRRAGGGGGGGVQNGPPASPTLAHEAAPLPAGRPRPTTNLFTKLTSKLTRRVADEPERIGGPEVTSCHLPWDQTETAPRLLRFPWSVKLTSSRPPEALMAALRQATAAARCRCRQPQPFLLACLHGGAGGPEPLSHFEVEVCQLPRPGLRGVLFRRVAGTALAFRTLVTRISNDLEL

SIK2 = target: T21, SIK2 (Homo sapiens, UniProt Q9H0K1)
T21 construct: purchased DiscoveRx KINOMEscan

CSNK1E = target: T22, CSNK1E (Homo sapiens, UniProt P49674)
T22 construct: purchased DiscoveRx KINOMEscan
T22 sequence (P49674 whole entry): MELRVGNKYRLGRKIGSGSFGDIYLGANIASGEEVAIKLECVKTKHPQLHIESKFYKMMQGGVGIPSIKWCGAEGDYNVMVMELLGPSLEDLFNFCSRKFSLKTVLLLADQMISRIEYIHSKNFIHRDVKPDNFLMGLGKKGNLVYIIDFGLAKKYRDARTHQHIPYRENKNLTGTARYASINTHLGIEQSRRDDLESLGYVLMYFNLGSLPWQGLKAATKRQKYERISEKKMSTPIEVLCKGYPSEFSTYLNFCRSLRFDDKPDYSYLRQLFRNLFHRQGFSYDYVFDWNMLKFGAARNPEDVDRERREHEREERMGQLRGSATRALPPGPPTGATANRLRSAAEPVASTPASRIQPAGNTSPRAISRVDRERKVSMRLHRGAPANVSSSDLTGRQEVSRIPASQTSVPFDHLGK

MEK5 = target: T23, MEK5 (Homo sapiens, UniProt Q13163)
T23 construct: purchased DiscoveRx KINOMEscan
T23 sequence (Q13163 whole entry): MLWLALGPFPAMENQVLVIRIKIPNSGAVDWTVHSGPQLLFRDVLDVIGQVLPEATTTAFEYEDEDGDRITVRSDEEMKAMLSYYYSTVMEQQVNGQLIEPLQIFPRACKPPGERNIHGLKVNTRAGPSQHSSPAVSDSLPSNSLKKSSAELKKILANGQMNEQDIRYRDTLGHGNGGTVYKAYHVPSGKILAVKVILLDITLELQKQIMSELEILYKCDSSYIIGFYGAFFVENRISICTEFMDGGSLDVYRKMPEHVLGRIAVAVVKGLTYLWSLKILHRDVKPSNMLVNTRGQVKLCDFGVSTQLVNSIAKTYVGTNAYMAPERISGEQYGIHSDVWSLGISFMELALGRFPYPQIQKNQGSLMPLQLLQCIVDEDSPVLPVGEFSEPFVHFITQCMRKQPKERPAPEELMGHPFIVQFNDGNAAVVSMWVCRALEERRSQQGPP

CTK = target: T24, CTK (Homo sapiens, UniProt P42679)
T24 construct: purchased DiscoveRx KINOMEscan

MET = target: T25, MET (Homo sapiens, UniProt P08581)
T25 construct: purchased DiscoveRx KINOMEscan

MKNK1 = target: T26, MKNK1 (Homo sapiens, UniProt Q9BUB5)
T26 construct: purchased DiscoveRx KINOMEscan

MLCK = target: T27, MLCK (Homo sapiens, UniProt Q32MK0)
T27 construct: purchased DiscoveRx KINOMEscan
T27 sequence (Q32MK0 whole entry): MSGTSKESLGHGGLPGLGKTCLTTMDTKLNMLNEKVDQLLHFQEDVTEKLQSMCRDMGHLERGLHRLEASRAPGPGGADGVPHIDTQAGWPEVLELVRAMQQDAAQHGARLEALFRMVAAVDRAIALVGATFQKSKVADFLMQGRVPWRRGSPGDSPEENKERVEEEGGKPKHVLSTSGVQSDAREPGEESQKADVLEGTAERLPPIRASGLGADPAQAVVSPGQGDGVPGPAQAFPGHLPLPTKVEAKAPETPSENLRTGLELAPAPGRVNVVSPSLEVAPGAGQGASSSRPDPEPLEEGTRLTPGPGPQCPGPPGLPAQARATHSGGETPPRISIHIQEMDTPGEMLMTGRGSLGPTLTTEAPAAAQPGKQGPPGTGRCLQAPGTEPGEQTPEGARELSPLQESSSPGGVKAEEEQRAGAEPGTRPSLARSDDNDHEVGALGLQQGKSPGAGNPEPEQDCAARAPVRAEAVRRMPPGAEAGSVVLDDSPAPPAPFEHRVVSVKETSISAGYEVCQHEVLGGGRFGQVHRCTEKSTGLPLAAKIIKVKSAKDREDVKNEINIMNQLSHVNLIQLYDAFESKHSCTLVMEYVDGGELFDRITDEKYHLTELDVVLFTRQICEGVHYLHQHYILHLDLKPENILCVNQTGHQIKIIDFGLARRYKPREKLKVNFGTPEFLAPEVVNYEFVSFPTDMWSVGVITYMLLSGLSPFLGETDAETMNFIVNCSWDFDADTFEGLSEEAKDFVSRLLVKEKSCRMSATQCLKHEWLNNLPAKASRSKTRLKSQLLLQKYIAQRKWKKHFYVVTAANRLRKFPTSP

DMPK = target: T28, DMPK (Homo sapiens, UniProt Q09013)
T28 construct: purchased DiscoveRx KINOMEscan

EGFR(G719S) = target: T29, EGFR(G719S) (Homo sapiens, UniProt P00533, G719S)
T29 construct: purchased DiscoveRx KINOMEscan

MUSK = target: T30, MUSK (Homo sapiens, UniProt O15146)
T30 construct: purchased DiscoveRx KINOMEscan

MYLK4 = target: T31, MYLK4 (Homo sapiens, UniProt Q86YV6)
T31 construct: purchased DiscoveRx KINOMEscan

NDR1 = target: T32, NDR1 (Homo sapiens, UniProt Q15208)
T32 construct: purchased DiscoveRx KINOMEscan

EPHA2 = target: T33, EPHA2 (Homo sapiens, UniProt P29317)
T33 construct: purchased DiscoveRx KINOMEscan

EPHA5 = target: T34, EPHA5 (Homo sapiens, UniProt P54756)
T34 construct: purchased DiscoveRx KINOMEscan

TYRO3 = target: T35, TYRO3 (Homo sapiens, UniProt Q06418)
T35 construct: purchased DiscoveRx KINOMEscan

EPHA6 = target: T36, EPHA6 (Homo sapiens, UniProt Q9UF33)
T36 construct: purchased DiscoveRx KINOMEscan

ULK3 = target: T37, ULK3 (Homo sapiens, UniProt Q6PHR2)
T37 construct: purchased DiscoveRx KINOMEscan

EPHB6 = target: T38, EPHB6 (Homo sapiens, UniProt O15197)
T38 construct: purchased DiscoveRx KINOMEscan

WEE2 = target: T39, WEE2 (Homo sapiens, UniProt P0C1S8)
T39 construct: purchased DiscoveRx KINOMEscan

ERBB4 = target: T40, ERBB4 (Homo sapiens, UniProt Q15303)
T40 construct: purchased DiscoveRx KINOMEscan

WNK3 = target: T41, WNK3 (Homo sapiens, UniProt Q9BYP7)
T41 construct: purchased DiscoveRx KINOMEscan
T41 sequence (Q9BYP7 whole entry): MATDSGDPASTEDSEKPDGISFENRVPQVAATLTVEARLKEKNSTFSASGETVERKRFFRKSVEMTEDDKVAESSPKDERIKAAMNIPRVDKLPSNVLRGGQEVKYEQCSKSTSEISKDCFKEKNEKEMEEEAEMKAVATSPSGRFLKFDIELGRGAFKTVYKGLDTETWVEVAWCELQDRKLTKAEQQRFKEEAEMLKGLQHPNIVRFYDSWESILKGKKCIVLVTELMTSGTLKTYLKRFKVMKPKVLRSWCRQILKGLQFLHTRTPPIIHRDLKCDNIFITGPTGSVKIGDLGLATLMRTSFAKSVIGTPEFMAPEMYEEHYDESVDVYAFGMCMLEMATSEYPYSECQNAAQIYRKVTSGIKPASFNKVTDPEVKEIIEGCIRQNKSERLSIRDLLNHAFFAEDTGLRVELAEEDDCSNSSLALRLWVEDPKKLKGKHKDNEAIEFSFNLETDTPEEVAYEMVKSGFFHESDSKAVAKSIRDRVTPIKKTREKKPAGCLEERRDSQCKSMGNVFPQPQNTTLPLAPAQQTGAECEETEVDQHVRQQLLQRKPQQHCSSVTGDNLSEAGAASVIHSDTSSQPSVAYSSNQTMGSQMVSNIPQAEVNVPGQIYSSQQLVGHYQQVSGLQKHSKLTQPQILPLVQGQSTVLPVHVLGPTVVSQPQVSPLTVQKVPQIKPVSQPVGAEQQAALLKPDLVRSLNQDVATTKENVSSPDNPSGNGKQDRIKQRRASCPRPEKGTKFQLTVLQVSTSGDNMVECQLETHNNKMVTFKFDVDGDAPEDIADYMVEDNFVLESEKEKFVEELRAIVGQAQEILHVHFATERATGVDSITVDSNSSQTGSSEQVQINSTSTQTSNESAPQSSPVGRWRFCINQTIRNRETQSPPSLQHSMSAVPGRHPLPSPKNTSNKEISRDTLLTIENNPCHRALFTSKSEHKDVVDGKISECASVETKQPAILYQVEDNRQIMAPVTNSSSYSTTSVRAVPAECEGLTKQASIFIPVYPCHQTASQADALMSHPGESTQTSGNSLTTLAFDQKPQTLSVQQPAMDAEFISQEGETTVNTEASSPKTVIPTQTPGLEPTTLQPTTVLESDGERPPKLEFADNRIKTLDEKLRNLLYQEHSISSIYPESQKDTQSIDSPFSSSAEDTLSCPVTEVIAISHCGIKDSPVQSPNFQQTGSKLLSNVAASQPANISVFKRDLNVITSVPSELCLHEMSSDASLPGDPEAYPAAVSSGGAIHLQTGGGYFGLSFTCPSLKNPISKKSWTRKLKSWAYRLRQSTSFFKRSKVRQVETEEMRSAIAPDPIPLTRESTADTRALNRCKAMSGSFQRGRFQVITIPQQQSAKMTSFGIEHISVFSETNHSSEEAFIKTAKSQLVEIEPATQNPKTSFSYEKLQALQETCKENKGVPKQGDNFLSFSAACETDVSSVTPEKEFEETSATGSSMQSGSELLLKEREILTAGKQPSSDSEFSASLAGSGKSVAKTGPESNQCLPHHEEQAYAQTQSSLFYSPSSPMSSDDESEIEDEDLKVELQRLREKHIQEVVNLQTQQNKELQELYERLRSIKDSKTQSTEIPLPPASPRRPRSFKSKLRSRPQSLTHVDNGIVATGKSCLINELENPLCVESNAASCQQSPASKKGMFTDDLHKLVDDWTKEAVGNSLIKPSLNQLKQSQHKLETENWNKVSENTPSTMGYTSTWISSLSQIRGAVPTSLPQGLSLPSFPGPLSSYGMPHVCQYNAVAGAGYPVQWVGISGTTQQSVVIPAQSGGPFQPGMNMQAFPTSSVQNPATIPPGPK

WNK4 = target: T42, WNK4 (Homo sapiens, UniProt Q96J92)
T42 construct: purchased DiscoveRx KINOMEscan

YANK2 = target: T43, YANK2 (Homo sapiens, UniProt Q9NY57)
T43 construct: purchased DiscoveRx KINOMEscan

FAK = target: T44, FAK (Homo sapiens, UniProt Q05397)
T44 construct: purchased DiscoveRx KINOMEscan

## CN1CCC(CNc2ccc3ncc(C(=O)Nc4cccc(OC(F)(F)F)c4)n3n2)CC1 [Cpd 2]
FGFR4
  remaining binding at 1 µM: 100%
ABL1(H396P)-nonP
  remaining binding at 1 µM: 93%
ABL1(Q252H)-P
  remaining binding at 1 µM: 100%
ABL2
  remaining binding at 1 µM: 96%
GRK4
  remaining binding at 1 µM: 93%
PKMYT1
  remaining binding at 1 µM: 75%
IRAK1
  remaining binding at 1 µM: 100%
JNK2
  remaining binding at 1 µM: 99%
CAMK4
  remaining binding at 1 µM: 100%
KIT(V559D,V654A)
  remaining binding at 1 µM: 91%
RIOK3
  remaining binding at 1 µM: 78%
CDK8
  remaining binding at 1 µM: 58%
CDKL1
  remaining binding at 1 µM: 97%
MAK
  remaining binding at 1 µM: 94%
RSK1(KD2-C-t.)
  remaining binding at 1 µM: 89%
MAP3K3
  remaining binding at 1 µM: 96%
MAP4K2
  remaining binding at 1 µM: 74%
CSF1R
  remaining binding at 1 µM: 100%
SGK3
  remaining binding at 1 µM: 100%
MARK4
  remaining binding at 1 µM: 100%
SIK2
  remaining binding at 1 µM: 97%
CSNK1E
  remaining binding at 1 µM: 95%
MEK5
  remaining binding at 1 µM: 73%
CTK
  remaining binding at 1 µM: 70%
MET
  remaining binding at 1 µM: 100%
MKNK1
  remaining binding at 1 µM: 86%
MLCK
  remaining binding at 1 µM: 100%
DMPK
  remaining binding at 1 µM: 88%
EGFR(G719S)
  remaining binding at 1 µM: 100%
MUSK
  remaining binding at 1 µM: 99%
MYLK4
  remaining binding at 1 µM: 100%
NDR1
  remaining binding at 1 µM: 89%
EPHA2
  remaining binding at 1 µM: 100%
EPHA5
  remaining binding at 1 µM: 100%
TYRO3
  remaining binding at 1 µM: 89%
EPHA6
  remaining binding at 1 µM: 86%
ULK3
  remaining binding at 1 µM: 78%
EPHB6
  remaining binding at 1 µM: 92%
WEE2
  remaining binding at 1 µM: 92%
ERBB4
  remaining binding at 1 µM: 100%
WNK3
  remaining binding at 1 µM: 99%
WNK4
  remaining binding at 1 µM: 100%
YANK2
  remaining binding at 1 µM: 100%
FAK
  remaining binding at 1 µM: 100%
